Consider 32 molecules from patent US12428415B2, “Matriptase 2 inhibitors and uses thereof” (Disc Medicine, Inc., priority 2018, dated 2025).

This test has as its target T1, Human Recombinant Matriptase 2 (Homo sapiens, UniProt Q8IU80).
T1 construct: purchased Enzo Life Sciences (an in-house preparation was also used) ALX-201-752-1
T1 sequence (Q8IU80 1-811): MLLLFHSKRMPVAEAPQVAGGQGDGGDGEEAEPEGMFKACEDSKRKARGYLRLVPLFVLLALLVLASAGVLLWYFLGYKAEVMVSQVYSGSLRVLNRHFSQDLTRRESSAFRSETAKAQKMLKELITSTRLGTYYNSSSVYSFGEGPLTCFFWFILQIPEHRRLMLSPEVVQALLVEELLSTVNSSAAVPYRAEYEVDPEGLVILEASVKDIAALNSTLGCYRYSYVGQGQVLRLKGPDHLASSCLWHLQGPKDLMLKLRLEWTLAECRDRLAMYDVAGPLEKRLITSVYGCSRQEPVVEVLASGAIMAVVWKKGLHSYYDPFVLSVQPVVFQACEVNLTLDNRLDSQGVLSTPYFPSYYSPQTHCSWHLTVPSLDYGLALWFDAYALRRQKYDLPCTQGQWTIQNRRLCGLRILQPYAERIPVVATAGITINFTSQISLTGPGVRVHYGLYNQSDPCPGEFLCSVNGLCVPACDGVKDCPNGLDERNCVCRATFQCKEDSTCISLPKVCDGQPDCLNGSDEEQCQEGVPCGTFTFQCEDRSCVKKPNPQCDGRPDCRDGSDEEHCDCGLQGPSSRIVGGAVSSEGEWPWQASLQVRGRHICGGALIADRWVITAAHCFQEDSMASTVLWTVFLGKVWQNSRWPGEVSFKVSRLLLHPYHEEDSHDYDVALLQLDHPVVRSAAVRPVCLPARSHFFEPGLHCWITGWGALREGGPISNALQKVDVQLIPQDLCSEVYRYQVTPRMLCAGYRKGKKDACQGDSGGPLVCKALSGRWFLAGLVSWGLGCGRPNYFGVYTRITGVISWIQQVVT
As to the kind of experiment: Matriptase 2 fluorescence based inhibition assay, Method B (50 mM TRIS pH 7.5, 150 mM NaCl, 0.01% gelatin). The class given is biochemical. The note with it: read-out: Mar-2 % inhibition at 1 uM. The procedure, abridged:
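Commercial (7 nM) or in-house (15 nM) enzyme preincubated 30 min with compound at 25° C, then 100 μM Boc-Gln-Ala-Arg-AMC added; fluorescence (Ex 360/Em 480 nm) read at 60 min. 1% DMSO final. IC50 from variable-slope sigmoidal fit of % inhibition.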

Where two headings read alike, the source gives them in different places.

Broadly, the inhibition is the relative decrease from the control value, in per cent.

Take `CC(C)(C)OC(=O)N[C@H]1CC[C@H](NC(=O)c2cn(Cc3cccc4ccccc34)c3cc(C(=N)N)ccc23)CC1` [Compound I-518, tert-butyl ((1r,4r)-4-(6-carbamimidoyl-1-(naphthalen-1-ylmethyl)-1H-indole-3-carboxamido)cyclohexyl) carbamate]: for the setting “1 uM compound, Assay Used = B”, the inhibition at 1 µM lay within 0 to 25%.
On the same count and under the same terms, in the case of `N=C(N)c1ccc2c(C(=O)N[C@H]3CC[C@H](N)CC3)cn(Cc3cccc4ccccc34)c2c1` [Compound I-519, N-((1r,4r)-4-aminocyclohexyl)-6-carbamimidoyl-1-(naphthalen-1-ylmethyl)-1H-indole-3-carboxamide] it was 0 to 25%; in that of `N=C(N)c1ccc2c(C(=O)N[C@H]3CC[C@H](N)CC3)cn(Cc3ccc4ccccc4c3)c2c1` [Compound I-520], 0 to 25%.
On the same count and under the same terms, to `N=C(N)c1ccc2ccn(Cc3cccc4ccccc34)c2c1` [Compound I-521, 1-(naphthalen-1-ylmethyl)-1H-indole-6-carboximidamide] belongs 50 to 75%; to `N=C(N)c1ccc2cc(S(=O)(=O)N[C@H]3CC[C@H](N)CC3)n(Cc3cccc4ccccc34)c2c1` [Compound I-522, 2-(N-((1r,4r)-4-aminocyclohexyl)sulfamoyl)-1-(naphthalen-1-ylmethyl)-1H-indole-6-carboximidamide], 50 to 75%; to `N=C(N)c1ccc2cc(S(=O)(=O)N(Cc3cccc4ccccc34)[C@H]3CC[C@H](N)CC3)n(Cc3cccc4ccccc34)c2c1` [Compound I-523], 0 to 25%.
Same read-out and setting: in the case of `CC(C)(C)OC(=O)N[C@H]1CC[C@H](c2nnc(-c3cc4ccc(C(=N)N)cc4n3Cc3cccc4ccccc34)o2)CC1` [Compound I-524, tert-butyl ((1r,4r)-4-(5-(6-carbamimidoyl-1-(naphthalen-1-ylmethyl)-1H-indol-2-yl)-1,3,4-oxadiazol-2-yl)cyclohexyl)carbamate] it was 25 to 50%; in that of `N=C(N)c1ccc2cc(-c3nnc([C@H]4CC[C@H](N)CC4)o3)n(Cc3cccc4ccccc34)c2c1` [Compound I-525, 2-(5-((1r,4r)-4-aminocyclohexyl)-1,3,4-oxadiazol-2-yl)-1-(naphthalen-1-ylmethyl)-1H-indole-6-carboximidamide], 75 to 100%.
For the molecule `N=C(N)c1ccc2cc(-c3nnc([C@H]4CC[C@H](N)CC4)s3)n(Cc3cccc4ccccc34)c2c1` [Compound I-526, 2-(5-((1r,4r)-4-aminocyclohexyl)-1,3,4-thiadiazol-2-yl)-1-(naphthalen-1-ylmethyl)-1H-indole-6-carboximidamide], the inhibition at 1 µM (1 uM compound, Assay Used = B) lay within 75 to 100%.
With `NC(=O)c1ccc2cc(-c3nnc([C@H]4CC[C@H](N)CC4)s3)n(Cc3cccc4ccccc34)c2c1` [Compound I-527, 2-(5-((1r,4r)-4-aminocyclohexyl)-1,3,4-thiadiazol-2-yl)-1-(naphthalen-1-ylmethyl)-1H-indole-6-carboxamide], the inhibition at 1 µM (1 uM compound, Assay Used = B) lay within 0 to 25%.
On to `N=C(N)c1ccc2cc(-c3nc4c(s3)CCC(N)C4)n(Cc3cccc4ccccc34)c2c1` (centres unmarked) [Compound I-528, 2-(5-amino-4,5,6,7-tetrahydrobenzo[d]thiazol-2-yl)-1-(naphthalen-1-ylmethyl)-1H-indole-6-carboximidamide], for which the inhibition at 1 µM (1 uM compound, Assay Used = B) lay within 25 to 50%.
For the molecule `N=C(N)c1ccc2cc(NC(=O)[C@H]3CC[C@H](N)CC3)n(Cc3cccc4ccccc34)c2c1` [Compound I-529, (1r,4r)-4-amino-N-(6-carbamimidoyl-1-(naphthalen-1-ylmethyl)-1H-indol-2-yl) cyclohexane-1-carboxamide], the inhibition at 1 µM (1 uM compound, Assay Used = B) lay in the range of 50 to 75%.
The same measure, in the same setting: in the case of `CC(C)(C)OC(=O)N[C@H]1CC[C@H](NC(=O)c2cc3ccc(CN)cc3n2Cc2cccc3ccccc23)CC1` [Compound I-530, tert-butyl ((1r,4r)-4-(6-(aminomethyl)-1-(naphthalen-1-ylmethyl)-1H-indole-2-carboxamido)cyclohexyl) carbamate] it was 0 to 25%; in that of `NCc1ccc2cc(C(=O)N[C@H]3CC[C@H](N)CC3)n(Cc3cccc4ccccc34)c2c1` [Compound I-531, N-((1r,4r)-4-aminocyclohexyl)-6-(aminomethyl)-1-(naphthalen-1-ylmethyl)-1H-indole-2-carboxamide], 50 to 75%; in that of `NCc1ccc2cc(C(=O)N[C@H]3CC[C@H](O)CC3)n(Cc3cccc4ccccc34)c2c1` [Compound I-532], 25 to 50%.
Still for that read-out and setting: to `NCc1ccc2cc(C(=O)NC3CCNCC3)n(Cc3cccc4ccccc34)c2c1` [Compound I-533] belongs 25 to 50%.
`NCc1ccc2cc(C(=O)NCC3CCNCC3)n(Cc3cccc4ccccc34)c2c1` [Compound I-534]: the inhibition at 1 µM (1 uM compound, Assay Used = B) lay within 25 to 50%.
Still for that read-out and setting: to `CN1CCC(NC(=O)c2cc3ccc(CN)cc3n2Cc2cccc3ccccc23)CC1` [Compound I-535] belongs 25 to 50%.
Same read-out and setting: to `NCc1ccc2cc(C(=O)NCC3CCNCC3)n(-c3ccc4ccccc4c3)c2c1` [Compound I-537] belongs 0 to 25%; to `NCc1ccc2cc(C(=O)O)n(Cc3cccc4ccccc34)c2c1` [Compound I-538, 6-(aminomethyl)-1-(naphthalen-1-ylmethyl)-1H-indole-2-carboxylic Acid], 25 to 50%.
As to `CC(C)(C)OC(=O)NCc1ccc2cc(C(=O)O)n(Cc3cccc4ccccc34)c2c1` [Compound I-539, 6-(((tert-butoxycarbonyl)amino)methyl)-1-(naphthalen-1-ylmethyl)-1H-indole-2-carboxylic Acid], under “1 uM compound, Assay Used = B”, the inhibition at 1 µM lay in the range of 0 to 25%.
Still for that read-out and setting: in the case of `NCc1ccc2cc(C(=O)NC3CCCC(N)C3)n(Cc3cccc4ccccc34)c2c1` (centres unmarked) [Compound I-540] it was 25 to 50%; in that of `NCCCCNC(=O)c1cc2ccc(CN)cc2n1Cc1cccc2ccccc12` [Compound I-541], 0 to 25%.
In the case of `N=C(N)c1ccc2nc(C(=O)N[C@H]3CC[C@H](N)CC3)n(Cc3cccc4ccccc34)c2c1` [Compound I-542, N-((1r,4r)-4-aminocyclohexyl)-6-carbamimidoyl-1-(naphthalen-1-ylmethyl)-1H-benzo[d]imidazole-2-carboxamide], for the setting “1 uM compound, Assay Used = B”, the inhibition at 1 µM was 75 to 100%.
Take `N=C(N)c1ccc2cc(C(=O)O)n(Cc3cc(Oc4ncccn4)cc4ccccc34)c2n1` [Compound I-544]: where the note is “1 uM compound, Assay Used = B”, the inhibition at 1 µM was in the range of 25 to 50%.
Consider `CN1CCC(NC(=O)c2cc3ccc(C(=N)NC(=O)Oc4ccc(F)cc4)cc3n2Cc2cc(Oc3ncccn3)cc3ccccc23)CC1` [Compound I-545], for which the inhibition at 1 µM was 25 to 50%.
On to `CS(=O)(=O)Nc1cc(Cn2c(C(=O)O)cc3ccc(C(=N)N)cc32)c2ccccc2c1` [Compound I-546], for which the inhibition at 1 µM (1 uM compound, Assay Used = B) lay within 75 to 100%.
`N=C(N)c1ccc2cc(C(=O)NCCS(N)(=O)=O)n(Cc3cc(Oc4ncccn4)cc4ccccc34)c2c1` [Compound I-547]: under “1 uM compound, Assay Used = B”, the inhibition at 1 µM lay within 75 to 100%.
The same measure, in the same setting: in the case of `N=C(N)c1ccc2cc(C(=O)O)n(Cc3cc(S(N)(=O)=O)cc4ccccc34)c2c1` [Compound I-548] it was 25 to 50%; in that of `CCOC(=O)NC(=N)c1ccc2cc(C(=O)NC3CCN(C)CC3)n(Cc3cc(Oc4ncccn4)cc4ccccc34)c2c1` [Compound I-549], 25 to 50%.
Turning to `COC(=O)NCCOC(=O)c1cc2ccc(C(=N)NC(=O)OCC(C)C)cc2n1Cc1cc(Oc2ncccn2)cc2ccccc12` [Compound I-550], for the setting “1 uM compound, Assay Used = B”, the inhibition at 1 µM is 0 to 25%.
Take `N=C(NC(=O)Oc1ccccc1)c1ccc2cc(C(=O)O)n(Cc3cc(Oc4ncccn4)cc4ccccc34)c2c1` [Compound I-551]: the inhibition at 1 µM is 0 to 25%.
